Assay: physchem
Conditions: octanol/water

| Compound | logD |
| --- | --- |
| Cc1ccc(-c2ccc3cc(CCN4CCC[C@H]4C)ccc3n2)c(C)n1 | 3.1 |
| Cc1ccc(-c2ccc3cc(CCN4CCC[C@H]4C)ccc3n2)cn1 | 2.8 |
| C[C@@H]1CCCN1CCc1ccc2nc(-c3ccncc3)ccc2c1 | 2.5 |
| C[C@@H]1CCCN1CCc1ccc2nc(-c3ccc(Cl)nc3)ccc2c1 | 3.4 |
| Cc1c(-c2ccc3cc(CCN4CCC[C@H]4C)ccc3n2)cnn1-c1ccc(N(C)C)nn1 | 3 |
| Cc1c(-c2ccc3cc(CCN4CCC[C@H]4C)ccc3n2)cnn1-c1ccc(Cl)c(Cl)c1 | 5.4 |
| C[C@@H]1CCCN1CCc1ccc2nc(-c3csc(-c4cc(Cl)nc(Cl)c4)n3)ccc2c1 | 5 |
| Cc1nc(C)c(-c2ccc3cc(CCN4CCC[C@H]4C)ccc3n2)s1 | 2.9 |
| C[C@@H]1CCCN1CCc1ccc2nc(-c3cccnc3)ccc2c1 | 2.5 |
| Cc1cc(C(F)(F)F)cc(-n2ncc(-c3ccc4cc(CCN5CCC[C@H]5C)ccc4n3)c2C)n1 | 4.6 |
| C[C@@H]1CCCN1CCc1ccc2nc(-c3csc(-c4ccccc4)n3)ccc2c1 | 4.4 |
| C[C@@H]1CCCN1CCc1ccc2nc(-c3csc(-c4ccc(OCC(F)(F)F)nc4)n3)ccc2c1 | 4.8 |
| Cc1ccc(-c2ccc(-c3ccc4cc(CCN5CCC[C@H]5C)ccc4n3)s2)s1 | 5.5 |
| C[C@@H]1CCCN1CCc1ccc2nc(C(C)(C)C)ccc2c1 | 3.6 |
| C[C@@H]1CCCN1CCc1ccc2nc(C3=NCCS3)ccc2c1 | 2.7 |
| C[C@@H]1CCCN1CCc1ccc2nc(-c3c(O)ccnc3C(F)(F)F)ccc2c1 | 3.6 |
| C[C@@H]1CCCN1CCc1ccc2nc(-c3ccc(C#N)cc3)ccc2c1 | 3.5 |
| C[C@@H]1CCCN1CCc1ccc2nc(-c3cnccn3)ccc2c1 | 1.8 |
| C[C@@H]1CCCN1CCc1ccc2ncccc2c1 | 1.7 |
| Cc1ccc2cc(CCN3CCC[C@H]3C)ccc2n1 | 2 |
| C[C@@H]1CCCN1CCc1ccc2nc(C3CC3)ccc2c1 | 2.7 |
| C[C@@H]1CCCN1CCc1ccc2nc(-c3nccs3)ccc2c1 | 2.5 |
| c1csc(-c2ccc(OCCCN3CCCCC3)cc2)c1 | 2.8 |
| c1coc(-c2ccc(OCCCN3CCCCC3)cc2)c1 | 2.3 |

| Compound | logD |
| --- | --- |
| c1cc(C2CCCO2)ccc1OCCCN1CCCCC1 (stereo not drawn) | 1.7 |
| c1c[nH]c(-c2ccc(OCCCN3CCCCC3)cc2)n1 | 1.6 |
| Cn1nccc1-c1ccc(OCCCN2CCCCC2)cc1 | 1.8 |
| c1ncc(-c2ccc(OCCCN3CCCCC3)cc2)o1 | 1.1 |
| c1cc(C2=NCCO2)ccc1OCCCN1CCCCC1 | 1.3 |
| C1=C(c2ccc(OCCCN3CCCCC3)cc2)CCC1 | 2.9 |
| c1cc(C2CCCCC2)ccc1OCCCN1CCCCC1 | 3.6 |
| c1cc(N2CCCCC2)ccc1OCCCN1CCCCC1 | 1.7 |
| c1cc(C2CCCCO2)ccc1OCCCN1CCCCC1 (stereo not drawn) | 2.1 |
| c1cc(C2CCOCC2)ccc1OCCCN1CCCCC1 | 1.8 |
| c1cc(-c2ccc3c(c2)OCO3)ccc1OCCCN1CCCCC1 | 2.7 |
| COc1ccccc1-c1ccc(OCCCN2CCCCC2)cc1 | 2.9 |
| O=C(c1ccccc1-c1ccc(OCCCN2CCCCC2)cc1)N1CCCCC1 | 3.2 |
| CCOC(=O)c1ccc(-c2ccc(OCCCN3CCCCC3)cc2)cc1 | 3.1 |
| CN(C)C1CCC(c2ccc(OCCCN3CCCCC3)cc2)CC1 (stereo not drawn) | 1.4 |
| Cc1nc(C)c(-c2ccc3cc(CCN4CCCC4C)ccc3n2)cc1C#N (stereo not drawn) | 2.9 |
| Cc1nc(C)c(-c2ccc3cc(CCN4CCCC4C)ccc3n2)cc1C(N)=O (stereo not drawn) | 2.1 |
| C=C(N(C)Cc1ccc(-c2ccccc2)cc1)N1CCN(C(C)C)CC1 | 1.8 |
| c1ccc(-c2ccc(OCCCN3CCCCC3)cc2)cc1 | 2.9 |
| CN(Cc1ccc(-c2ccccc2)cc1)C(=O)N1CCC[C@H]1CN1CCCC1 | 2.6 |
| CC(C)N1CCN(C(=O)N2CCC(C(=O)OC(C)(C)C)CC2)CC1 | 0.6 |
| O=C(/C=C/c1ccc(C(F)(F)F)cc1)N1CCC[C@H]1CN1CCCC1 | 2.4 |
| CC(C)N1CCN(C(=O)N2CCC(C(=O)N3CC4CCC(CC4)C3)CC2)CC1 | 0.9 |
| O=C(NCc1ccc(C(F)(F)F)cc1)N1CCC[C@H]1CN1CCCC1 | 1.8 |

| Compound | logD |
| --- | --- |
| COc1cc2c(cc1OC)CN(C(=O)N1CCN(C(C)C)CC1)CC2 | 1 |
| CC(C)N1CCN(C(=O)N2CCC(Cc3ccccc3)CC2)CC1 | 2 |
| CC(C)N1CCN(C(=O)N2Cc3ccccc3C2)CC1 | 0.7 |
| CC(C)N1CCN(C(=O)N2CCc3ccccc3C2)CC1 | 1 |
| CC(C)N1CCN(C(=O)N2CCC(NC(=O)C3CCCC3)CC2)CC1 | 0.2 |
| CCOc1ccc(-n2ncc(-c3ccc4cc(CCN5CCC[C@H]5C)ccc4n3)c2C)nn1 | 3.8 |
| C[C@@H]1CCCN1CCc1cc2cc(-c3ccc(C#N)cc3)ccc2o1 | 3.2 |
| O=C(N1CCN(C2CC2)CC1)N1Cc2ccccc2C1 | 0.1 |
| CC(C)N1CCN(C(=O)N2CCC(c3ccccc3)CC2)CC1 | 1.6 |
| CC(C)N1CCN(C(=O)N2CC=C(c3ccccc3)CC2)CC1 | 1.4 |
| O=C(N1Cc2ccccc2C1)N1CCC[C@H]1CN1CCCC1 | 0.9 |
| Cc1c(-c2ccc3cc(CCN4CCC[C@H]4C)ccc3n2)cnn1-c1ccccn1 | 3.4 |
| O=C(N1CCN(C2CCCC2)CC1)N1Cc2ccccc2C1 | 1.1 |
| COc1cccc2nc(-c3ccc(OC4CCN(C5CCC5)CC4)cc3)n(C)c(=O)c12 | 2.2 |
| COc1ccc2nc(-c3ccc(OC4CCN(C5CCC5)CC4)cc3)n(C)c(=O)c2c1 | 2.2 |
| COc1cccc2c(=O)n(C)c(-c3ccc(OC4CCN(C5CCC5)CC4)cc3)nc12 | 2.2 |
| Cn1c(-c2ccc(OC3CCN(C4CCC4)CC3)cc2)nc2c(Cl)cccc2c1=O | 2.8 |
| Cn1c(-c2ccc(OC3CCN(C4CCC4)CC3)cc2)nc2c(C(F)(F)F)cccc2c1=O | 3.1 |
| Cn1c(-c2ccc(OC3CCN(C4CCC4)CC3)cc2)nc2c(F)cccc2c1=O | 2.4 |
| COc1ccc2c(=O)n(C)c(-c3ccc(OC4CCN(C5CCC5)CC4)cc3)nc2c1 | 2.2 |
| Cn1c(-c2ccc(OC3CCN(C4CCCC4)CC3)cc2)nc2ccccc2c1=O | 2.6 |
| Cc1nc2cc(F)ccc2c(=O)n1-c1ccc(OCCCN2CCCC2)cc1 | 1.9 |
| Cc1nc2c(C(F)(F)F)cccc2c(=O)n1-c1ccc(OCCCN2CCCC2)cc1 | 2.6 |
| COc1cccc2c(=O)n(-c3ccc(OCCCN4CCCC4)cc3)c(C)nc12 | 1.7 |

| Compound | logD |
| --- | --- |
| COc1ccc2c(=O)n(-c3ccc(OCCCN4CCCC4)cc3)c(C)nc2c1 | 1.7 |
| Cc1nc2cccc(Cl)c2c(=O)n1-c1ccc(OCCCN2CCCC2)cc1 | 2.4 |
| Cc1nc2cc(C(F)(F)F)ccc2c(=O)n1-c1ccc(OCCCN2CCCC2)cc1 | 2.6 |
| COc1cccc2nc(C)n(-c3ccc(OCCCN4CCCC4)cc3)c(=O)c12 | 1.7 |
| COc1ccc2nc(C)n(-c3ccc(OCCCN4CCCC4)cc3)c(=O)c2c1 | 1.7 |
| Cc1ccc2nc(C)n(-c3ccc(OCCCN4CCCC4)cc3)c(=O)c2c1 | 2.2 |
| Cc1ccc2c(=O)n(-c3ccc(OCCCN4CCCC4)cc3)c(C)nc2c1 | 2.2 |
| Cc1cccc2c(=O)n(-c3ccc(OCCCN4CCCC4)cc3)c(C)nc12 | 2.2 |
| Cc1nc2ccc(F)cc2c(=O)n1-c1ccc(OCCCN2CCCC2)cc1 | 1.9 |
| O=c1c2ccccc2nc(-c2ccc(OCCCN3CCCCC3)cc2)n1Cc1ccccc1 | 3.8 |
| O=c1c2ccccc2nc(-c2ccc(OCCCN3CCCCC3)cc2)n1-c1ccccc1 | 3.8 |
| Cn1c(-c2ccc(OCCCN3CCCCC3)cc2)nc2ccccc2c1=O | 2.2 |
| CCCn1c(-c2ccc(OCCCN3CCCCC3)cc2)nc2ccccc2c1=O | 3.1 |
| Cn1c(-c2ccc(OCCCN3CCCC3)cc2)nc2ccccc2c1=O | 1.8 |
| Cn1c(-c2ccc(OC3CCN(C4CCC4)CC3)cc2)nc2ccccc2c1=O | 2.2 |
| CC(C)n1c(-c2ccc(OCCCN3CCCCC3)cc2)nc2ccccc2c1=O | 3 |
| COc1nccc2c(=O)n(C)c(-c3ccc(OC4CCN(C5CCC5)CC4)cc3)nc12 | 1.6 |
| Cc1cccc2c(=O)n(C)c(-c3ccc(OC4CCN(C5CCC5)CC4)cc3)nc12 | 2.7 |
| Cc1nc2c(F)cccc2c(=O)n1-c1ccc(OCCCN2CCCC2)cc1 | 1.9 |
| CCn1c(-c2ccc(OCCCN3CCCCC3)cc2)nc2ccccc2c1=O | 2.6 |
| Cc1nc2cccc(C(F)(F)F)c2c(=O)n1-c1ccc(OCCCN2CCCC2)cc1 [MK-0249] | 2.6 |
